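All cell lines were grown in 96-well plates and treated with compound for 48 hours. GI50: concentration for 50% inhibition of growth. The concentration for full growth arrest is given as TGI.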
Legend:
Assay in all cases: DTP human tumour cell line panel, 48 h
SN12C renal = test system: SN12C renal
UO-31 renal = test system: UO-31 renal
OVCAR-3 ovarian = test system: OVCAR-3 ovarian
UACC-62 melanoma = test system: UACC-62 melanoma
A549 NSCLC = test system: A549 NSCLC
NCI-H522 lung = test system: NCI-H522 lung
MALME-3M melanoma = test system: MALME-3M melanoma
HL-60(TB) leukemia = test system: HL-60(TB) leukemia
IGROV1 ovarian = test system: IGROV1 ovarian
DU-145 prostate = test system: DU-145 prostate

| Structure (SMILES) | TGI (SN12C renal) | TGI (UO-31 renal) | TGI (OVCAR-3 ovarian) | TGI (UACC-62 melanoma) | TGI (A549 NSCLC) | TGI (NCI-H522 lung) | TGI (MALME-3M melanoma) | TGI (HL-60(TB) leukemia) | TGI (IGROV1 ovarian) | GI50 (SN12C renal) | GI50 (UO-31 renal) | GI50 (OVCAR-3 ovarian) | GI50 (UACC-62 melanoma) | GI50 (A549 NSCLC) | GI50 (NCI-H522 lung) | GI50 (IGROV1 ovarian) | GI50 (DU-145 prostate) | TGI (DU-145 prostate) | GI50 (MALME-3M melanoma) | GI50 (HL-60(TB) leukemia) |
| --- | --- | --- | --- | --- | --- | --- | --- | --- | --- | --- | --- | --- | --- | --- | --- | --- | --- | --- | --- | --- |
| COC(=O)C1C(OCc2ccccc2)C2CCC1(OC)C=C2C (configuration not stated) | > 100 µM | > 100 µM | > 100 µM | > 100 µM | > 100 µM | > 100 µM | > 100 µM | 29.8 µM | > 100 µM |  |  |  |  |  |  |  |  |  |  |  |
| Cc1ccc(Oc2ccc([N+](=O)[O-])cc2[N+](=O)[O-])c(C)c1 | > 100 µM | > 100 µM | > 100 µM | > 100 µM | > 100 µM |  | > 100 µM | 65.2 µM | > 100 µM |  |  |  |  |  |  |  |  |  |  |  |
| O=c1c2cccnc2ncn1CCN1CCCC1 | > 100 µM | > 100 µM | > 100 µM | > 100 µM | > 100 µM | > 100 µM | > 100 µM |  | > 100 µM |  |  |  |  |  |  |  |  |  |  |  |
| O=c1c2ccccc2nc(-c2cccc(Cl)c2)n1NCC1(O)OCC(O)C(O)C1O (configuration not stated) | > 100 µM | > 100 µM | > 100 µM | > 100 µM | > 100 µM | > 100 µM | > 100 µM | > 100 µM |  |  |  |  |  |  |  |  |  |  |  |  |
| O=C1CCS/C(=N\S(=O)(=O)c2ccc(N3N=C4c5ccccc5CC4C3c3cccs3)cc2)N1C(=O)c1ccccc1 (configuration not stated) | 57.1 µM | > 100 µM | 67.1 µM | 28 µM | 24.3 µM | 65.1 µM |  |  | 29.9 µM | 16.7 µM | 30.7 µM | 27.4 µM | 6.37 µM | 10.6 µM | 14.4 µM | 14.5 µM | 23.2 µM | > 100 µM |  |  |
| COc1ccc(-c2c(N)[n+]([O-])c3ccccc3[n+]2[O-])cc1OC | > 100 µM | > 100 µM | > 100 µM |  | > 100 µM | > 100 µM | > 100 µM | > 100 µM | > 100 µM |  |  |  |  |  |  |  |  |  |  |  |
| CCC(C(=O)c1ccccc1)C(CCCC(=O)Nc1c(C)cccc1C)N=O (configuration not stated) | > 100 µM | > 100 µM | > 100 µM | > 100 µM | > 100 µM | > 100 µM | > 100 µM | > 100 µM | > 100 µM |  |  |  |  |  |  |  |  |  |  |  |
| Cc1c2c(cc3c(=O)ccn(CCN(C)C)c13)c(=O)ccn2CCN(C)C | 33.3 µM | 34.3 µM | 34.9 µM | 31.6 µM | 48.9 µM | 21.1 µM | 69.1 µM | 41.6 µM | 37 µM |  |  |  |  |  |  |  |  |  |  |  |
| Cn1cnc([N+](=O)[O-])c1Sc1nnnn1-c1ccccc1 | 29.7 µM | 27.9 µM | 26.6 µM | 27.4 µM | 62.9 µM | 7.35 µM | 21.3 µM |  | 33.7 µM |  |  |  |  |  |  |  |  |  |  |  |
| NC(CC1=CCC=CC1)C(=O)O (configuration not stated) | > 100 µM | > 100 µM | > 100 µM | > 100 µM | > 100 µM |  |  |  | > 100 µM |  |  |  |  |  |  |  |  | > 100 µM |  |  |
| S=c1nc(N2CCCCC2)ss1 | 40.9 µM | 39.6 µM |  | 35.4 µM | 83.7 µM |  | 35.6 µM | 44.3 µM | 58.5 µM |  |  |  |  |  |  |  |  |  |  |  |
| Cc1cccc(C)c1NC(=O)CCc1n[nH]c(=S)o1 | > 100 µM | > 100 µM | > 100 µM | > 100 µM | > 100 µM | > 100 µM | > 100 µM | > 100 µM | > 100 µM |  |  |  |  |  |  |  |  |  |  |  |
| O=C(NCc1ccncc1)C1COc2cc(-c3cc(=O)c4ccccc4o3)ccc2O1 (configuration not stated) | > 100 µM | > 100 µM | > 100 µM | > 100 µM | > 100 µM | > 100 µM | > 100 µM | > 100 µM | > 100 µM |  |  |  |  |  |  |  |  |  |  |  |
| NNC(=O)/C(NC(=O)c1ccccc1)=C(\N)c1ccc(Cl)cc1 | > 100 µM | > 100 µM | > 100 µM | > 100 µM | > 100 µM | > 100 µM | > 100 µM | > 100 µM | > 100 µM |  |  |  |  |  |  |  |  |  |  |  |
| COc1cc2c(cn1)[nH]c1ccccc12 | > 100 µM | > 100 µM | > 100 µM | > 100 µM | > 100 µM | > 100 µM | > 100 µM | > 100 µM | > 100 µM |  |  |  |  |  |  |  |  |  |  |  |
| Clc1ccc(Nc2ccnc(NCCCNc3ccnc4cc(Cl)ccc34)n2)cc1 |  | 3.31 µM |  |  | 3.35 µM | 3.68 µM |  |  |  |  | 1.68 µM |  |  | 1.73 µM | 1.95 µM |  | 1.86 µM | 3.35 µM |  |  |
| C=CCn1cc(C(=O)NC(=O)NCCCCCOC(=O)CCCCCCCCCCC(=O)OCCCCCNC(=O)NC(=O)c2cn(CC=C)c(=O)n(C)c2=O)c(=O)n(C)c1=O | > 100 µM | > 100 µM | > 100 µM | > 100 µM | > 100 µM | > 100 µM | > 100 µM | > 100 µM | > 100 µM |  |  |  |  |  |  |  |  |  |  |  |
| COc1cc(Nc2nc3ccc(C(F)(F)F)cc3nc2-c2ccccc2)cc(OC)c1OC | > 100 µM | 55.7 µM | > 100 µM | > 100 µM | > 100 µM | 93.6 µM | > 100 µM |  | > 100 µM |  |  |  |  |  |  |  |  |  |  |  |
| N#C/C(=C\c1ccc(C(O)P(=O)(O)O)cc1)C(N)=O (configuration not stated) | > 100 µM | > 100 µM | > 100 µM | > 100 µM | > 100 µM | > 100 µM | > 100 µM | > 100 µM | > 100 µM |  |  |  |  |  |  |  |  |  |  |  |
| C1COCCOCCOCCOCCO1.CC(=O)[CH-]C(C)=O.CC(=O)[CH-]C(C)=O.CC(=O)[CH-]C(C)=O.[V] | 62.3 µM | 61.4 µM | 32.3 µM | 17.4 µM | > 100 µM | 39 µM | 16.4 µM | 42.2 µM | 22.5 µM | 21.3 µM | 32.5 µM | 13.7 µM | 4.25 µM | 22.7 µM | 16.9 µM | 4.79 µM |  |  | 2.99 µM | 20.1 µM |
| CC1(O)CCC2(C#N)CCC1C2O (configuration not stated) | > 100 µM | > 100 µM | > 100 µM | > 100 µM | > 100 µM | > 100 µM | > 100 µM | > 100 µM | > 100 µM |  |  |  |  |  |  |  |  |  |  |  |
| O=C1CS/C(=N\S(=O)(=O)c2ccc(N3N=C4c5ccccc5CC4C3c3ccc(Cl)cc3)cc2)N1c1ccccc1 (configuration not stated) | > 100 µM | > 100 µM | > 100 µM | 77.3 µM | 65.8 µM | > 100 µM |  | 48.7 µM | > 100 µM | 37.3 µM | 29.1 µM | 48.5 µM | 30.1 µM | 24.2 µM | 36.7 µM | 37.8 µM | 33.9 µM | > 100 µM |  | 23.1 µM |

Reference: PubChem BioAssay (NCI)
